Experimental data published in patent US10897903B2, “Method for controlling PPO resistant weeds” (BASF SE, priority 2016, dated 2021).

Tested on: w.1 AMATA Amaranthus tamariscinus, common waterhemp, sensitive biotype
Experiment: Greenhouse experiment, weed control of w.1 (Example 3)
Type: in vivo
Conditions: for Weed control (%) w.1: greenhouse, sensitive biotype

With `C#CCN1C(=O)C(F)(F)Oc2cc(F)c(-n3c(=O)n(C)c(=S)n(C)c3=O)cc21` [I.a.35] the “activity in words on sensitive weed w.1” value (summary of Example 3 table) was “very good activity”, the “Weed control (%) w.1” value (use rate 2 g/ha) was 99% and the “Weed control (%) w.1” value (use rate 4 g/ha) was 100%.
